Source: ChEMBL document CHEMBL1921678, “The discovery of novel cyclohexylamide CCR2 antagonists” (Bioorg Med Chem Lett, 2011)
Values belong to the molecule of their own block, whether it stands above or below them. The source made the active and inactive calls. The rule behind the calls is not given here.

Experiments:
[1] = biological target: C-C chemokine receptor type 2 (Homo sapiens, UniProt P41597); assay: Antagonist activity at human CCR2; format: functional
[2] = biological target: T1, Voltage-gated inwardly rectifying potassium channel KCNH2 (Homo sapiens, UniProt Q12809); assay: Inhibition of human ERG
T1 sequence (Q12809 whole entry): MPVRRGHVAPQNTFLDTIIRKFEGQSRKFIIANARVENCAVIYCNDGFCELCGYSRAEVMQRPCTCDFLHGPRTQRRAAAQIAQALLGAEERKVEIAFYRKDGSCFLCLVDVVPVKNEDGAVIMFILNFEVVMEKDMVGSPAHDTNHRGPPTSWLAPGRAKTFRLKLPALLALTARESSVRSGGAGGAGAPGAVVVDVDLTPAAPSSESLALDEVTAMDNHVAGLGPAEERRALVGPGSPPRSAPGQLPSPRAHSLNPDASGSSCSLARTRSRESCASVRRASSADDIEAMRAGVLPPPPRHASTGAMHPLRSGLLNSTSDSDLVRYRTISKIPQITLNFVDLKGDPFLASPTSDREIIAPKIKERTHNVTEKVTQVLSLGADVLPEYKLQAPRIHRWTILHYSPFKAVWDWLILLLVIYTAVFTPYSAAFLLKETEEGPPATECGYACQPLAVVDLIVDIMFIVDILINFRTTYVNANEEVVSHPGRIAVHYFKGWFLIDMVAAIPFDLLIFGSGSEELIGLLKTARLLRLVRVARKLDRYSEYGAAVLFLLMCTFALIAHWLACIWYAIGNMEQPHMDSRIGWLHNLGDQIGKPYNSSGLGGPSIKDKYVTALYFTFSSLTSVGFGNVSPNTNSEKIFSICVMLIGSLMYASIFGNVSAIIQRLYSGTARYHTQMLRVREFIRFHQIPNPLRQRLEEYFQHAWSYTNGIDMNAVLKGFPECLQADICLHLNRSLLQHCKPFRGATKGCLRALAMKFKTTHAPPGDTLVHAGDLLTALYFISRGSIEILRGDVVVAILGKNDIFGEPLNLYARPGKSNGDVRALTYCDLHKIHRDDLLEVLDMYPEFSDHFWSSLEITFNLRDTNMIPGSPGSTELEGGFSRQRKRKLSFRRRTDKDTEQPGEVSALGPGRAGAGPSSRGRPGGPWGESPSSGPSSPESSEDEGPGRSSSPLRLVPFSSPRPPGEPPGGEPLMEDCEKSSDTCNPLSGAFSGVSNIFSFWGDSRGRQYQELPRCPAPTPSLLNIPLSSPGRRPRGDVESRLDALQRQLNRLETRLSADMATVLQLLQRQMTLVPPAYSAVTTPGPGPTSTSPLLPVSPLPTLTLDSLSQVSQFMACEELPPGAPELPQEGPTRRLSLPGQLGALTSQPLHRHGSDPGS

[3] = biological target: C-C chemokine receptor type 2 (Mus musculus) (UniProt P51683); assay: Antagonist activity at mouse CCR2; format: functional
Chain of C-C chemokine receptor type 2 (Mus musculus) (P51683 whole entry, looked up): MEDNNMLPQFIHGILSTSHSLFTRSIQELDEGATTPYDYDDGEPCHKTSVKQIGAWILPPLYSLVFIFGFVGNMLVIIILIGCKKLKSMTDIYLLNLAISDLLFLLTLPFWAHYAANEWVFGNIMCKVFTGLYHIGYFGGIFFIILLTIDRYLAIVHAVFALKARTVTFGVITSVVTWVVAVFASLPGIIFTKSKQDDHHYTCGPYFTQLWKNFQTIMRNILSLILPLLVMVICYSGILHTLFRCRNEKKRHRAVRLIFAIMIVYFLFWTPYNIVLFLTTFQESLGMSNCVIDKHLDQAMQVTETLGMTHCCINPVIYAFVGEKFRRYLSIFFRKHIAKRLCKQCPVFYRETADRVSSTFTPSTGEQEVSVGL

[4] = test system: Mus musculus; assay: Antiinflammatory activity in human CCR2 transgenic C57BL/6 mouse assessed as reduction of thioglycollate-induced peritonitis at 30 mg/kg, po; format: functional, organism-based; design: dose 30 mg/kg
[5] = test system: Cavia porcellus; assay: Cardiotoxicity in guinea pig hemodynamic model assessed as QT interval at 10 mg/kg, iv; format: toxicity, organism-based; design: dose 10 mg/kg, route intravenous; conditions: in vivo
[6] = test system: Cavia porcellus; assay: Cardiotoxicity in guinea pig hemodynamic model assessed as PR interval at 10 mg/kg, iv; format: toxicity, organism-based; design: dose 10 mg/kg, route intravenous; conditions: in vivo
[7] = Half life in mouse at 2 mg/kg, iv; format: ADME, organism-based; design: dose 2 mg/kg, route intravenous; conditions: in vivo
[8] = Clearance in mouse at 2 mg/kg, iv; format: ADME, organism-based; design: dose 2 mg/kg, route intravenous; conditions: in vivo
[9] = test system: Cavia porcellus; assay: Cardiotoxicity in guinea pig hemodynamic model assessed as QTc at 10 mg/kg, iv; format: toxicity, organism-based; design: dose 10 mg/kg, route intravenous; conditions: in vivo
[10] = Cmax in mouse at 10 mg/kg, po; format: ADME, organism-based; design: dose 10 mg/kg, route oral; conditions: in vivo
[11] = biological target: T1, Voltage-gated inwardly rectifying potassium channel KCNH2; assay: Binding affinity to human ERG
[12] = Half life in mouse at 10 mg/kg, po; format: ADME, organism-based; design: dose 10 mg/kg, route oral; conditions: in vivo
[13] = test system: Cavia porcellus; assay: Cardiotoxicity in guinea pig hemodynamic model assessed as mean arterial pressure at 10 mg/kg, iv; format: toxicity, organism-based, Artery; design: dose 10 mg/kg, route intravenous; conditions: in vivo
[14] = biological target: T1, Voltage-gated inwardly rectifying potassium channel KCNH2; assay: Inhibition of human ERG by patch clamp assay
[15] = test system: Cavia porcellus; assay: Cardiotoxicity in guinea pig hemodynamic model assessed as heart rate at 10 mg/kg, iv; format: toxicity, organism-based; design: dose 10 mg/kg, route intravenous; conditions: in vivo
[16] = Volume of distribution at steady state in mouse at 2 mg/kg, iv; format: ADME, organism-based; design: dose 2 mg/kg, route intravenous; conditions: in vivo, read-out: Vdss
[17] = AUC in mouse at 10 mg/kg, po; format: ADME, organism-based; design: dose 10 mg/kg, route oral; conditions: plasma
[18] = test system: Cavia porcellus; assay: Cardiotoxicity in guinea pig hemodynamic model assessed as QRS duration at 10 mg/kg, iv; format: toxicity, organism-based; design: dose 10 mg/kg, route intravenous; conditions: in vivo
[19] = Initial plasma concentration in mouse at 2 mg/kg, iv; format: ADME, organism-based; design: dose 2 mg/kg, route intravenous
[20] = Oral bioavailability in mouse at 10 mg/kg; format: ADME, organism-based; conditions: in vivo

Chain of C-C chemokine receptor type 2 (P41597 whole entry): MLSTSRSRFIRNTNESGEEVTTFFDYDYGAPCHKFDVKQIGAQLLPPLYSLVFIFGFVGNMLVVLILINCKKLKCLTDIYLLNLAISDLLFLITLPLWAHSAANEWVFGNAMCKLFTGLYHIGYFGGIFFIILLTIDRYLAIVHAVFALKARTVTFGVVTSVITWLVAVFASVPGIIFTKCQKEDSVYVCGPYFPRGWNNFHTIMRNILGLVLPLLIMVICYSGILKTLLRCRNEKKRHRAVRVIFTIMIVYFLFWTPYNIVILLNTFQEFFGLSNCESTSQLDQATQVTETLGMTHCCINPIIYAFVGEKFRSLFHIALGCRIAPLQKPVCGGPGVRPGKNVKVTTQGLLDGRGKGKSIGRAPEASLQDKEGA

Compound: CC(C)C1CCC(NC(C(N)=O)C2CCN(C(=O)/C=C/c3cc(F)c(F)c(F)c3)CC2)CC1 (centres undefined)
IC50 [1]: 15800 nM
INH [2]: 6.2 µM

Compound: NC(=O)C(NC1CCC(c2c[nH]c3ccccc23)CC1)C1CCN(C(=O)/C=C/c2ccc(Cl)cc2)CC1 (centres undefined)
INH [2]: 0.87 µM

Compound: NC(=O)C(NC1CCC(c2c[nH]c3ccccc23)CC1)C1CCN(C(=O)Nc2ccccc2)CC1 (centres undefined)
IC50 [1]: 9570 nM
INH [2]: 14.784 µM

Compound: NC(=O)C(NC1CCC(c2c[nH]c3ncccc23)CC1)C1CCN(C(=O)/C=C/c2cc(F)c(F)c(F)c2)CC1 (centres undefined)
INH [2]: 8.3 µM

Compound: NC(=O)C(NC1CCC(c2c[nH]c3ccccc23)CC1)C1CCN(C(=O)/C=C/c2cc(F)cc(F)c2)CC1 (trans isomer)
INH [2]: 6.6 µM

Compound: NC(=O)C(NC1CCC(c2c[nH]c3ccccc23)CC1)C1CCN(C(=O)/C=C/c2cc(F)cc(F)c2)CC1 (single isomer, unassigned; (-))
INH [2]: 20.375 µM

Compound: NC(=O)C(NC1CCC(c2c[nH]c3ccccc23)CC1)C1CCN(C(=O)CCc2ccccc2)CC1 (centres undefined)
IC50 [1]: > 25000 nM

Compound: NC(=O)C(NC1CCC(c2c[nH]c3ccccc23)CC1)C1CCN(C(=O)/C=C/c2ccc(OC(F)(F)F)cc2)CC1 (centres undefined)
INH [2]: 1.39 µM

Compound: NC(=O)C(NC1CCC(c2c[nH]c3ccccc23)CC1)C1CCN(C(=O)C2CC2c2ccccc2)CC1 (mixture of isomers)
IC50 [1]: 1300 nM

Compound: CNC(=O)C(NC1CCC(c2c[nH]c3ccccc23)CC1)C1CCN(C(=O)/C=C/c2cc(F)c(F)c(F)c2)CC1 (centres undefined)
INH [2]: 5.4 µM

Compound: NC(=O)C(NC1Cc2ccccc2C1)C1CCN(C(=O)/C=C/c2cc(F)c(F)c(F)c2)CC1 (centres undefined)
IC50 [1]: 1400 nM

Compound: CN(C)C(=O)C(NC1CCC(c2c[nH]c3ccccc23)CC1)C1CCN(C(=O)/C=C/c2cc(F)c(F)c(F)c2)CC1 (centres undefined)
INH [2]: 4.4 µM

Compound: CN(C1CCC(c2c[nH]c3ccccc23)CC1)C(C(=O)O)C1CCN(C(=O)/C=C/c2cc(F)c(F)c(F)c2)CC1 (centres undefined)
IC50 [1]: 8100 nM

Compound: O=C(/C=C/c1cc(F)c(F)c(F)c1)N1CCC(CNC2CCC(c3c[nH]c4ccccc34)CC2)CC1 (centres undefined)
IC50 [1]: 25000 nM

Compound: NC(=O)C(NC1CCc2ccccc21)C1CCN(C(=O)/C=C/c2cc(F)c(F)c(F)c2)CC1 (centres undefined)
IC50 [1]: 2300 nM

Compound: NC(=O)C(NC1CCC(c2c[nH]c3ccccc23)CC1)C1CCN(C(=O)/C=C/c2ccc(C(F)(F)F)cc2)CC1 (centres undefined)
INH [2]: 1.08 µM

Compound: NC(=O)C(NC1CCC(c2c[nH]c3ccccc23)CC1)C1CCN(C(=O)/C=C/c2ccccc2F)CC1 (centres undefined)
INH [2]: 4.128 µM

Compound: NC(=O)C(NC1CCC(c2c[nH]c3ccccc23)CC1)C1CCN(C(=O)/C=C/c2cc(F)c(F)c(F)c2)CC1 (centres undefined)
INH [2]: 3.3 µM

Compound: NC(=O)C(NC1CCC(c2c[nH]c3ccccc23)CC1)C1CCN(Cc2ccccc2)CC1 (centres undefined)
IC50 [1]: > 25000 nM
INH [2]: 1.769 µM

Compound: COc1ccc(C2CCC(NC(C(N)=O)C3CCN(C(=O)/C=C/c4cc(F)c(F)c(F)c4)CC3)CC2)cn1 (centres undefined)
INH [2]: 11.7 µM

Compound: NC(=O)C(NC1CCC(c2ccccc2)C1)C1CCN(C(=O)/C=C/c2cc(F)c(F)c(F)c2)CC1 (centres undefined)
IC50 [1]: 1300 nM

Compound: O=C1NC2(CCC(c3c[nH]c4ccccc34)CC2)NC1C1CCN(C(=O)/C=C/c2cc(F)c(F)c(F)c2)CC1 (centres undefined)
IC50 [1]: 5200 nM

Compound: NC(=O)C(NC1CCC(c2c[nH]c3ccccc23)CC1)C1CCN(C(=O)/C=C\c2cc(F)cc(F)c2)CC1 (cis isomer)
INH [2]: 2.2 µM

Compound: NC(=O)C(NC1CCC(c2c[nH]c3ccccc23)CC1)C1CCN(C(=O)/C=C/c2ccccc2)CC1 (centres undefined)
INH [2]: 7.35 µM

Compound: NC(=O)C(NC1CCP(=O)(c2ccccc2)CC1)C1CCN(C(=O)/C=C/c2cc(F)c(F)c(F)c2)CC1 (centres undefined)
IC50 [1]: > 25000 nM

Compound: O=C(NO)C(NC1CCC(c2c[nH]c3ccccc23)CC1)C1CCN(C(=O)/C=C/c2cc(F)c(F)c(F)c2)CC1 (centres undefined)
INH [2]: 41 µM

Compound: NC(=O)C(NC1CCC(C2CNc3ccccc32)CC1)C1CCN(C(=O)/C=C/c2cc(F)c(F)c(F)c2)CC1 (centres undefined)
IC50 [1]: 950 nM
INH [2]: 4.2 µM

Compound: O=C(O)C(C1CCN(C(=O)/C=C/c2cc(F)c(F)c(F)c2)CC1)N1CCC(c2c[nH]c3ccccc23)CC1 (centres undefined)
INH [2]: 1.5 µM

The next lines start with results.

IC50 [1]: > 25000 nM
Compound: NC(=O)C(NC1CCC(c2c[nH]c3ccccc23)CC1)C1CCN(C(=O)/C=C/c2c(F)cccc2F)CC1 (centres undefined)
INH [2]: 3.734 µM

inhibition [3]: inactive
Compound: NC(=O)C(NC1CCC(c2c[nH]c3ccccc23)CC1)C1CCN(C(=O)/C=C/c2cc(F)cc(F)c2)CC1 (racemic) [listing 1 of 2 here]
Activity [4]: Active

IC50 [1]: > 25000 nM
Compound: NC(=O)C(NC1CCC(c2c[nH]c3ccccc23)CC1)C1CCN(C(=O)Cc2ccccc2)CC1 (centres undefined)
INH [2]: 17.636 µM

IC50 [1]: 83 nM
Compound: NC(=O)C(NC1CCC(c2c[nH]c3ccncc23)CC1)C1CCN(C(=O)/C=C/c2cc(F)c(F)c(F)c2)CC1 (centres undefined)
INH [2]: 0.97 µM

IC50 [1]: 11600 nM
Compound: CS(=O)(=O)c1ccc(/C=C/C(=O)N2CCC(C(NC3CCC(c4c[nH]c5ccccc45)CC3)C(N)=O)CC2)cc1 (centres undefined)
INH [2]: > 50 µM

IC50 [1]: 900 nM
Compound: COC(=O)C(NC1CCC(c2c[nH]c3ccccc23)CC1)C1CCN(C(=O)/C=C/c2cc(F)c(F)c(F)c2)CC1 (centres undefined)
INH [2]: 2.2 µM

IC50 [1]: > 25000 nM
Compound: NC(=O)C(NC1CCC(c2c[nH]c3ccccc23)CC1)C1CN(C(=O)/C=C/c2cc(F)c(F)c(F)c2)C1 (centres undefined)

IC50 [1]: 35 nM
Compound: NC(=O)C(NC1CCC(c2c[nH]c3cccnc23)CC1)C1CCN(C(=O)/C=C/c2cc(F)c(F)c(F)c2)CC1 (centres undefined)
INH [2]: 6.3 µM

IC50 [1]: > 25000 nM
Compound: NC(=O)C(NC1CCC(c2c[nH]c3ccccc23)CC1)C1CCN(C(=O)c2ccccc2)CC1 (centres undefined)
INH [2]: 5.471 µM

IC50 [1]: 38 nM
Compound: NC(=O)C(NC1CCC(c2c[nH]c3ccccc23)CC1)C1CCN(C(=O)/C=C/c2ccc(F)c(F)c2)CC1 (centres undefined)
INH [2]: 1.714 µM

IC50 [1]: 9200 nM
Compound: O=C(/C=C/c1cc(F)c(F)c(F)c1)N1CCC(C(CO)NC2CCC(c3c[nH]c4ccccc34)CC2)CC1 (centres undefined)
INH [2]: 0.52 µM

IC50 [1]: 6000 nM
Compound: NC(=O)C(NC1CCC(c2ccccc2)CC1)C1CCN(C(=O)/C=C/c2cc(F)c(F)c(F)c2)CC1 (centres undefined)
INH [2]: 3.4 µM

IC50 [1]: 1890 nM
Compound: CN(C)c1ccc(/C=C/C(=O)N2CCC(C(NC3CCC(c4c[nH]c5ccccc45)CC3)C(N)=O)CC2)cc1 (centres undefined)
INH [2]: > 50 µM

IC50 [1]: 2200 nM
Compound: NC(=O)C(NC1CCC(c2c[nH]c3cnccc23)CC1)C1CCN(C(=O)/C=C/c2cc(F)c(F)c(F)c2)CC1 (centres undefined)
INH [2]: < 0.2 µM

IC50 [1]: 8600 nM
Compound: CC(NC1CCC(c2c[nH]c3ccccc23)CC1)C1CCN(C(=O)/C=C/c2cc(F)c(F)c(F)c2)CC1 (centres undefined)
INH [2]: 0.29 µM

IC50 [1]: 36 nM
Compound: NC(=O)C(NC1CCC(c2c[nH]c3ccccc23)CC1)C1CCN(C(=O)/C=C/c2ccc(F)cc2)CC1 (centres undefined)
INH [2]: 2.02 µM

IC50 [1]: 50 nM
Compound: O=C(O)C(NC1CCC(c2c[nH]c3ccccc23)CC1)C1CCN(C(=O)/C=C/c2cc(F)c(F)c(F)c2)CC1 (centres undefined)
INH [2]: 31 µM

half-life [7]: 1.9 h
clearance [8]: 31 mL/min/kg
Cmax [10]: 531 ng/mL
half-life [12]: 2.4 h
Vd [16]: 3.71 L/kg
AUC [17]: 2420 ng·h/mL
C0 [19]: 1020 ng/mL
bioavailability [20]: 50%
Compound: NC(=O)C(NC1CCC(c2c[nH]c3ccccc23)CC1)C1CCN(C(=O)/C=C/c2cc(F)cc(F)c2)CC1 (racemic) [listing 2 of 2 here]
INH [2]: 4.906 µM
Activity [5]: Non-toxic
Activity [6]: Non-toxic
Activity [9]: Non-toxic
INH [11]: 8 µM
Activity [13]: Non-toxic
INH [14]: 600 nM
Activity [15]: Non-toxic
Activity [18]: Non-toxic

IC50 [1]: 64 nM
Compound: NC(=O)C(NC1CCC(c2c[nH]c3ccccc23)CC1)C1CCN(C(=O)/C=C/c2cccc(F)c2)CC1 (centres undefined)
INH [2]: 2.076 µM
